Legend:
[1] = target: T1, papain (Carica papaya, UniProt P00784); format: biochemical; details: for apparent rate constant (k'+2, second order) for inactivation of papain: 12-fold molar excess of inhibitor, papain 2×10^-8 M, pH 6.5, 22° C
T1 construct: purchased Sigma type III
T1 sequence (P00784 134-345): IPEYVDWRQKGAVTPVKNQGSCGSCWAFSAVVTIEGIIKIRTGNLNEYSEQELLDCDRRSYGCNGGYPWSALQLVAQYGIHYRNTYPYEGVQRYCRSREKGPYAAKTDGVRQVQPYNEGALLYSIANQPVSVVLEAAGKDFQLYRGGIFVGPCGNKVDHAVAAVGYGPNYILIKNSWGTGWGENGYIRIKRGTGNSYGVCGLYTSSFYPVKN
Description: Activity determination of papain was performed according to Barrett et al (ibid.), using Z-Phe-Arg-NHMec as substrate in 0.1M phosphate buffer, pH 6.5/1 mM DTT/1 mM EDTA at room temperature (22° C). All test dilutions were performed in 0.01% Brij 35. The reaction was started by substrate addition (20 μM final concentration) and stopped 10 minutes later by the addition of an equal volume of 0.1M NaCH2 Cl/NaAc, pH 4.3. Released fluorogen product was measured in a Perkin-Elmer MPF-43A spectrofluorimeter (excitation 360 nm, emission 460 nm) against a blank with the same contents as the test solution where chloroacetate had been added before the addition of enzyme/substrate.
The molar active concentration of the papain solution used was determined by titration with E-64 (Barrett et al., ibid.). Stock solutions (1 mM) of LVG and VG were prepared by weighing 10 μmol of the respective peptidyl diazomethyl ketone which was thereafter dissolved in 500 μl acetonitrile (LVG) or 100 μl DMSO (VG), whereupon the volumes were adjusted to 10 ml with water. The exact concentration of peptidyl diazomethyl ketone was experimentally established, such that the reaction proceeded within a reasonable time with regard to the measuring technique used. Enzyme (2×10^-8 M final concentration) and peptidyl diazomethyl ketone were mixed at zero time. 25 μl samples were withdrawn at suitable times (15 s-10 min.) and therafter immediately added to mixtures for enzyme activity determination (see above). The dilution then obtained efficiently stopped continued reaction between enzyme and peptidyl diazomethyl ketone.
Evaluation of experimental data was made in the manner described by Barret et al. (ibid.), where
When i>>e, the following equation applies to the kinetics of inactivation: [formula] where ao is enzyme activity (here measured as amount of released fluorogen product from the substrate Z-Phe-Arg-NHMec) at zero time, and at is enzyme activity at time t.
The apparent rate constant k'+2 (second order) for the inactivation in the scheme
was caculated as kobs /i.
Papain was incubated with LVG and VG in a 12-fold molar excess, and samples were withdrawn at different times for determining residual enzyme activity.

[2] = target: human calpain (Homo sapiens, UniProt P07384); details: calpain 2.5 μg/ml, 30 min at 37° C, pH 7.5
Description: Isolated human calpain (0.15 mg/ml) in 20 mM Tris buffer, pH 7.5/5 mM CaCl2 /6 mM dithiothreitol was supplied with a substrate (0.4% casein in 0.1 M imidazole buffer, pH 7.5/5 mM CaCl2 /6 mM dithiothreitol) and different amounts of LVG. After incubation for 30 min. at 37° C., the reaction was stopped by the addition of trichloroacetic acid to a final concentration of 2.5%, and the samples were centrifuged, whereupon the absorption of the supernatant at 280 nm was measured.

[3] = tested on: group-A streptococci; details: 0.2 mg LVG intraperitoneally 45 min after lethal dose of group-A streptococci; five mice per group; none of the five controls alive
Description: Ten mice were injected intraperitoneally with lethal doses of group-A streptococci. Five of them received after a period of 45 min. 0.2 mg LVG in 0.5 ml 1% dimethyl sulfoxide in physiological sterile saline by a second intraperitoneal injection.

[4] = tested on: group-A streptococci
Description: Group-A streptococci were cultured on blood agar discs as in routine diagnosis for determining sensitivity to antibiotics. The discs applied on the culture gel and used for supplying different types of known antibiotics were this time soaked instead with 20 μl of a solution having an LVG concentration of 1 mM. […] (MIC=minimal inhibiting concentration).

[5] = target: trypsin (Bos taurus, UniProt P00760); details: 250-fold molar excess, even after incubation for one hour
Description: Trypsin activity at pH 7.5 was measured at room temperature (22° C.) on samples in buffer with a final concentration of 25 mN Tris/25 mM CaCl2 The reaction was started by the addition of Bz-DL-Arg-pNA to 2.5 mN final concentration and stopped after 10 minutes by the addition of an equal volume of 50% (v/v) HAc. Released paranitroaniline was meausred spectrophotometrically (Perkin-Elmer 550S) at 405 nm. Absorbancy values for blank (HAc addition before enzyme/substrate addition) were subtracted before evaluation.

[6] = target: streptococcal proteinase (Streptococcus pyogenes serotype M1, UniProt P0C0J1); details: proteinase 0.0625 mg/ml, 5 min preincubation at 37° C, azocasein 15 min
Description: The isolated streptococcal proteinase (15 mg/ml) was diluted to 0.0625 mg/ml with 0.4M phosphate buffer, pH 6.5/4 mM EDTA/4 mM DTT and then activated by incubation at 37° C. for two hours. To a constant volume of the active streptococcal proteinase was thereafter added a constant volume of LVG solutions with increasing LVG concentration. After incubation for 5 min. at 37° C., the substrate azocasein was added and after additional incubation for exactly 15 min. at 37° C., the reaction was stopped by the addition of 20% TCA (trichloroacetic acid). The samples were centrifuged and the absorbancy of the supernatant was read at 366 nm.

Row | Substance | apparent rate constant (k'+2, second order) for inactivation of papain [1] | effectiveness as papain inhibitor relative to VG ([1]; LVG versus VG) | final concentration of LVG giving complete inhibition of calpain [2] | mice still alive after one day [3] | effect on bacterial growth when a molar excess of isolated streptococcal proteinase was added to the LVG solution ([4]; LVG solution premixed with molar excess of streptococcal proteinase before application to cultures) | inhibition of growth of group-A streptococci on blood agar ([4]; discs soaked with 20 μl of 1 mM LVG, all tested isolates and reference strains) | MIC (minimal inhibiting concentration) for group-A streptococci ([4]; growth in free solution) | inhibition of trypsin enzyme activity [5] | LVG concentration sufficient to give total inhibition of streptococcal proteinase activity [6] | inhibition of papain [1] | behaviour as substrate for papain ([1]; cleaved at the glycine-glycine peptide bond)
1 | N-benzyloxycarbonyl-leucyl-valyl-glycine diazomethyl ketone [LVG] | 300000 M⁻¹ s⁻¹ | about 100 times | 1 µM | five | no effect on the bacterial growth | effectively inhibited in growth | about 1 μg/l | no inhibition | 10 µM | – | –
2 | N-t-butyloxycarbonyl-valyl-glycine diazomethyl ketone [VG] | 5000 M⁻¹ s⁻¹ | – | – | – | – | – | – | no inhibition | – | – | –
3 | synthetic peptide corresponding to position 4-21 in cystatin C: synthetic peptide corresponding to position 4-21 in cystatin C (synthesized on request by Ferring AB, Malmo, Sweden) (GKPPRLVGGPMDASVEEE; UniProt P01034 30-47, looked up, fragment) [reference compound] | – | – | – | – | – | – | – | – | – | does not at all inhibit | excellent substrate
